What was measured:
MEF = assay: Induction of apoptosis in RIP3-/- MEF cells transfected with human RIP3mutRHIM incubated for 18 hrs by Cell Titer-Glo luminescent cell viability assay; type: toxicity, cell-based; conditions: mouse
[1] = molecular target: T1, Tyrosine-protein kinase JAK3 (Homo sapiens) (UniProt P52333); assay: Inhibition of human JAK3 using GGEEEEYFELVKKKK as substrate at 1 uM in presence of 32P-ATP by Hotspot assay relative to control; values are per cent of control
T1 sequence (whole entry): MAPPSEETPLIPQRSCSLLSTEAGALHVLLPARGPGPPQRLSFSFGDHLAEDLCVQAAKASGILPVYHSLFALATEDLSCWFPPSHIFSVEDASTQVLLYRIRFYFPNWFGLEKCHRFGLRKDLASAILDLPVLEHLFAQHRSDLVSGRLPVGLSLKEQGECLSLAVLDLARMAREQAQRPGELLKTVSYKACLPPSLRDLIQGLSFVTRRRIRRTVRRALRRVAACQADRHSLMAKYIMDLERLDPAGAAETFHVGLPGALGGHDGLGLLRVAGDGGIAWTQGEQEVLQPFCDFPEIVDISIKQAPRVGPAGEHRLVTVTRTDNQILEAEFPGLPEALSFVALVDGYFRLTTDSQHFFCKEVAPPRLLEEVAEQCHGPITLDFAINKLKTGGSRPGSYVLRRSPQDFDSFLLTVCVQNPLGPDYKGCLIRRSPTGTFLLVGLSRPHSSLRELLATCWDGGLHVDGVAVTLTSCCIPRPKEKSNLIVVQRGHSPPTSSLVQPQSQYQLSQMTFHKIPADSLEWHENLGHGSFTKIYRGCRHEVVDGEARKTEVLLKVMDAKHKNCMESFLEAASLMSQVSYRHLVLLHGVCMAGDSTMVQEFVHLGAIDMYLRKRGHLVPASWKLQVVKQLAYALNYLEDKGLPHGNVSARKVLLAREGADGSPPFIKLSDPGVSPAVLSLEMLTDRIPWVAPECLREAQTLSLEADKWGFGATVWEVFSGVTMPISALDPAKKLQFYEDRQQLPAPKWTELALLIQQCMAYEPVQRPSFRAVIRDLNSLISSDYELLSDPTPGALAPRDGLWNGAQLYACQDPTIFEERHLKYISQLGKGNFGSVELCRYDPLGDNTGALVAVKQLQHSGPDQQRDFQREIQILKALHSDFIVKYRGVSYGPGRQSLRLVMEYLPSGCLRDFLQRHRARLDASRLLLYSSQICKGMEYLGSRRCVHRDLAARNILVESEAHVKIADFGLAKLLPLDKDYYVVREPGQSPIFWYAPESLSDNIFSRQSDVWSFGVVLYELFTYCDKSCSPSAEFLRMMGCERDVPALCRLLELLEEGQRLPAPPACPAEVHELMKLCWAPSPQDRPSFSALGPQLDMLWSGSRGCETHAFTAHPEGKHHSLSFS

[2] = molecular target: Protein kinase C alpha type (Homo sapiens) (UniProt P17252); assay: Inhibition of human PKCa using ERMRPRKRQGSVRRRV as substrate at 1 uM in presence of 32P-ATP by Hotspot assay relative to control; values are per cent of control
[3] = molecular target: T2, Protein kinase C iota type (Homo sapiens) (UniProt P41743); assay: Inhibition of human PKCiota using ERMRPRKRQGSVRRRV as substrate at 1 uM in presence of 32P-ATP by Hotspot assay relative to control; values are per cent of control
T2 sequence (whole entry): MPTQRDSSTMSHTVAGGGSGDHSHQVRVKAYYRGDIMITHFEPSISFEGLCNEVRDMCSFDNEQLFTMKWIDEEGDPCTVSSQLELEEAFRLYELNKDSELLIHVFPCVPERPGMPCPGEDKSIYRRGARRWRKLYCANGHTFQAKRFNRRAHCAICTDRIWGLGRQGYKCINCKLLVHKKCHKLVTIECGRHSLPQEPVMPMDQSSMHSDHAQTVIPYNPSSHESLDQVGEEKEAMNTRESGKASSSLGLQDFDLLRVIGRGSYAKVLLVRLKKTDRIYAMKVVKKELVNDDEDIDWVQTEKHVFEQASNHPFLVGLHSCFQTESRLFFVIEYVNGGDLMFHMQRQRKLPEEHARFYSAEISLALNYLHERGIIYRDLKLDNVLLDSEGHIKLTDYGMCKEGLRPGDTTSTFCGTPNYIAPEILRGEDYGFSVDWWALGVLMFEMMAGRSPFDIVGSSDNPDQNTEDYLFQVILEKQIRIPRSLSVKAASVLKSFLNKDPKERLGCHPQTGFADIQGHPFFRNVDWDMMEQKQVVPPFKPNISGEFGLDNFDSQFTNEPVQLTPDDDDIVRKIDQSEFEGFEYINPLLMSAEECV

[4] = molecular target: T3, Testis-specific serine/threonine-protein kinase 2 (Homo sapiens) (UniProt Q96PF2); assay: Inhibition of human TSSK2 using KKKVSRSGLYRSPSMPENLNRPR as substrate at 1 uM in presence of 32P-ATP by Hotspot assay relative to control; values are per cent of control
T3 sequence (whole entry): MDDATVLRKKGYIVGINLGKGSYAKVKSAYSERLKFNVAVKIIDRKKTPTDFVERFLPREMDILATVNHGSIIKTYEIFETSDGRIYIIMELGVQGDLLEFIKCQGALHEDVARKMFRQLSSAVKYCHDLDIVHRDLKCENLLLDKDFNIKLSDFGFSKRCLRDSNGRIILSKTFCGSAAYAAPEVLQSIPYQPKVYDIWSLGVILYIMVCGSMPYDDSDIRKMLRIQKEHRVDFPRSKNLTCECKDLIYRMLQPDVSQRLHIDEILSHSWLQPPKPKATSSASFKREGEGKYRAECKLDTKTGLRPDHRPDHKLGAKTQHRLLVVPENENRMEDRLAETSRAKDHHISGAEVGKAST

[5] = molecular target: T4, Mitogen-activated protein kinase 13 (Homo sapiens) (UniProt O15264); assay: Inhibition of human P38d/MAPK13 using myelin basic protein as substrate at 1 uM in presence of 32P-ATP by Hotspot assay relative to control; values are per cent of control
T4 sequence (whole entry): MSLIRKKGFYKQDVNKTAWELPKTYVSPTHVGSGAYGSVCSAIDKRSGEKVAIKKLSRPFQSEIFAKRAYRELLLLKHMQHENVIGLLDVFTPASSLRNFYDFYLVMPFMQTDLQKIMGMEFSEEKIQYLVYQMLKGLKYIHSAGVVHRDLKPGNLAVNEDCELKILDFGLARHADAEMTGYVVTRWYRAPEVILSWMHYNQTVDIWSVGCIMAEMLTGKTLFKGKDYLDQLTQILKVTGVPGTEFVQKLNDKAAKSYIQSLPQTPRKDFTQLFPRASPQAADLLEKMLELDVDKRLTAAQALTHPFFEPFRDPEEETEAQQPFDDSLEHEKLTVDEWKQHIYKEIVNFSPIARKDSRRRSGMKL

With CNC(=O)c1ccc2c(c1)ncn2-c1ccc(CC(=O)OC(C)(C)C)cc1 the Activity (MEF) was “Non-Toxic”, the residual activity [1] was 94.3% and the residual activity [2] was 107%. The residual activity [3] was 93.8%, the residual activity [4] was 98.9% and the residual activity [5] was 104%.
For Cc1cc(-c2cnc(N)c3c(-c4ccc5scnc5c4)csc23)n(C)n1, the Activity (MEF) was “Non-Toxic”, the residual activity [1] was 96.6% and the residual activity [2] was 80.8%. For the same compound, the residual activity [3] was 102%, the residual activity [4] was 97.2% and the residual activity [5] was 103%.
CC(C)S(=O)(=O)c1ccc2nccc(Nc3ccc4scnc4c3)c2c1 was tested, and the Activity (MEF) was “Non-Toxic”, the residual activity [1] was 102% and the residual activity [2] was 80.2%. The residual activity [3] was 83%, the residual activity [4] was 102% and the residual activity [5] was 94.8%.
